Legend:
[1] = tested on: HCV replicon (Genotype 1b); test: Luciferase genotype 1b replicon potency assay; format: cell-based, hepatitis C virus; settings: Renilla luciferase reporter activity, 50% decrease vs untreated cells
Procedure: (§1) Further to the above Examples, representative compounds, prepared according to the examples were tested for potency in an HCV replicon assay (Genotype 1b) for activity against the virus (EC50) and toxicity to the cells (CC50).
(§2) Huh7 Replicon Cell Lines and Cell Culture Conditions: A luciferase-reporter genotype 1b subgenomic replicon cell line, and a genotype 1a full-length replicon cell line were obtained from Apath, LLC, Brooklyn, N.Y.: All cell lines were passaged twice a week by splitting 4 or 6 fold. Cells were maintained in DMEM-high glucose medium (HyClone, Logan, Utah) supplemented with 9% FBS (HyClone), 2 mM glutamine (Invitrogen, Carlsbad, Calif.), 100 U/mL PenStrep (Invitrogen). Media also contained 0.25 mg/mL of the antibiotic G-418 to maintain stable expression of the replicon (Invitrogen). Incubation was performed at 37° C. in 5% CO2 atmosphere. Replicon cell lines were used until they accumulated 15-to-18 passages, after which cells were restarted from the frozen stock. Seeding cell counts were routinely determined using an automatic Cedex HiRes cell counter (Flownomics Analytical Instruments, Madison, Wis.) or manually using INCYTO C-Chip™ Disposable Hemacytometers (Fisher Scientific, Pittsburg, Pa.).
Luciferase Genotype 1b Replicon Potency Assay. Replicon cells were seeded into white 96-well plates (Nunc/VWR) at a density of 2×10^4 cells/well in medium without G-418. A Stacker Multidrop Liquid Dispenser (MTX Lab Systems, Vienna, Va.) was employed to ensure uniform and fast cell seeding into multiple plates. 18-24 h after cell plating, inhibitors were added and cells were incubated for additional 24, 48, or 72 h (as indicated). Compounds were tested in triplicates and quadruplicates at 3× or 4× serial dilutions over a range of 0.0001-to-10 μM concentrations. HCV replication was monitored by Renilla luciferase reporter activity assay using Renilla luciferase reporter (Promega, Madison, Wis.) and a Veritas Luminometer (Turner Biosystems, Sunnyvale, Calif.). 50% and 90% inhibitory concentration (IC50 and IC90) values were calculated as the concentration of compound that results correspondingly in 50% and 90% decreases in the reporter expression as compared to untreated cells. The values were determined by non-linear regression (four-parameter sigmoidal curve fitting) analysis.

[2] = Cytotoxicity assay (CellTiter-Glo); format: cell-based; settings: human, 72 h incubation, concentration resulting in 50% luminescent signal
Procedure: as §1, §2
Cytotoxicity Assay. Cells were seeded into 96-well plates at a density of 2×10^4 cells per well. 24 h after cell plating, 11 serial 2× compound dilutions, starting with 100 µM, were applied to the testing plates (3 repeats per compound dilution). Each testing plate was run with a “no-compound” control. Incubation with compounds was continued at 37° C. in a CO2 incubator for 72 h. To determine cell viability, the CellTiter-Glo® assay (Promega, Madison, Wis.) was performed according to the manufacturer's protocol. The compound concentration resulting in 50% luminescent signal was reported as the CC50 concentration.

[3] = Hepatitis C virus, Huh-7, Huh7 luciferase-reporter genotype 1b subgenomic replicon cells
[4] = Huh7 HCV replicon cells (genotype 1b)

Structure (SMILES)	IC50 [1, 3] [µM]	CC50 at 72 h [2, 4] [µM]	IC50 ([1]; Huh7 luciferase-reporter genotype 1b subgenomic replicon cells) [µM]	CC50 at 72 h [2] [µM]
COc1nc(N)nc2c1ncn2[C@@H]1O[C@H](CO)[C@@H](F)[C@@]1(C)O [Example 2, (2R,3S,4R,5R)-2-(2-amino-6-methoxy-9H-purin-9-yl)-4-fluoro-5-(hydroxymethyl)-3-methyltetrahydrofuran-3-ol]	> 100	> 100	–	–
C[C@@]1(O)[C@H](F)[C@@H](CO)O[C@H]1n1cnc2c(=O)[nH]c(N)nc21 [Example 3, 2-amino-9-((2R,3S,4R,5R)-4-fluoro-3-hydroxy-5-(hydroxymethyl)-3-methyltetrahydrofuran-2-yl)-1H-purin-6(9H)-one]	> 100	> 100	–	–
COc1nc(N)nc2c1ncn2[C@H]1O[C@H](CO)[C@@H](F)[C@]1(C)O [Example 4, (2S,3R,4R,5R)-2-(2-Amino-6-methoxy-9H-purin-9-yl)-4-fluoro-5-(hydroxymethyl)-3-methyltetrahydrofuran-3-ol]	> 100	> 100	–	–
C[C@]1(O)[C@H](F)[C@@H](CO)O[C@@H]1n1cnc2c(Cl)nc(N)nc21 [Example 5, (2S,3R,4R,5R)-2-(2-amino-6-chloro-9H-purin-9-yl)-4-fluoro-5-(hydroxymethyl)-3-methyltetrahydrofuran-3-ol]	> 100	> 100	–	–
CCOc1nc(N)nc2c1ncn2[C@@H]1O[C@H](CO)[C@@H](F)[C@@]1(C)O [Example 6, (2R,3S,4R,5R)-2-(2-amino-6-ethoxy-9H-purin-9-yl)-4-fluoro-5-(hydroxymethyl)-3-methyltetrahydrofuran-3-ol]	> 100	> 100	–	–
C[C@@]1(O)[C@H](F)[C@@H](CO)O[C@H]1n1cnc2c(N3CCC3)nc(N)nc21 [Example 7, (2R,3S,4R,5R)-2-(2-Amino-6-(azetidin-1-yl)-9H-purin-9-yl)-4-fluoro-5-(hydroxymethyl)-3-methyltetrahydrofuran-3-ol]	24	> 100	> 40	–
C[C@@]1(O)[C@H](F)[C@@H](CO)O[C@H]1n1cnc2c(N)ncnc21 [Example 8, (2R,3S,4R,5R)-2-(6-Amino-9H-purin-9-yl)-4-fluoro-5-(hydroxymethyl)-3-methyltetrahydrofuran-3-ol]	> 100	> 100	–	–
C[C@@]1(O)[C@H](F)[C@@H](CO)O[C@H]1n1ccc(N)nc1=O [Example 9, 4-Amino-1-((2R,3S,4R,5R)-4-fluoro-3-hydroxy-5-(hydroxymethyl)-3-methyltetrahydrofuran-2-yl)pyrimidin-2(1H)-one]	> 100	> 100	–	–
C[C@@]1(O)[C@H](F)[C@@H](CO)O[C@H]1n1ccc(=O)[nH]c1=O [Example 10, 1-((2R,3S,4R,5R)-4-Fluoro-3-hydroxy-5-(hydroxymethyl)-3-methyltetrahydrofuran-2-yl)pyrimidine-2,4(1H,3H)-dione]	23	> 100	–	–
COc1nc(N)nc2c1ncn2[C@@H]1O[C@H](CO)[C@H](F)[C@@]1(C)O [Example 11, (2R,3S,4S,5R)-2-(2-Amino-6-methoxy-9H-purin-9-yl)-4-fluoro-5-(hydroxymethyl)-3-methyltetrahydrofuran-3-ol]	> 100	> 100	–	–
COc1nc(N)nc2c1ncn2[C@@H]1O[C@H](COP(=O)(N[C@@H](C)C(=O)OCc2ccccc2)Oc2cccc3ccccc23)[C@@H](F)[C@@]1(C)O (stereo partly drawn) [Example 12, (2S)-Benzyl 2-((((2R,3R,4S,5R)-5-(2-amino-6-methoxy-9H-purin-9-yl)-3-fluoro-4-hydroxy-4-methyltetrahydrofuran-2-yl)methoxy)(naphthalen-1-yloxy)phosphorylamino)propanoate]	0.77	–	–	48
COc1nc(N)nc2c1ncn2[C@@H]1O[C@H](COP(=O)(N[C@@H](C)C(=O)OCc2ccc(F)cc2F)Oc2cccc3ccccc23)[C@@H](F)[C@@]1(C)O (stereo partly drawn) [Example 13, (2S)-2,4-Difluorobenzyl 2-((((2R,3R,4S,5R)-5-(2-amino-6-methoxy-9H-purin-9-yl)-3-fluoro-4-hydroxy-4-methyltetrahydrofuran-2-yl)methoxy)(naphthalen-1-yloxy)phosphorylamino)propanoate]	1	–	–	68
CCCCOC(=O)[C@H](C)NP(=O)(OC[C@H]1O[C@@H](n2cnc3c(OC)nc(N)nc32)[C@](C)(O)[C@@H]1F)Oc1cccc2ccccc12 (stereo partly drawn) [Example 14, (2S)-butyl 2-((((2R,3R,4S,5R)-5-(2-amino-6-methoxy-9H-purin-9-yl)-3-fluoro-4-hydroxy-4-methyltetrahydrofuran-2-yl)methoxy)(naphthalen-1-yloxy)phosphorylamino)propanoate]	0.33	–	–	40
COc1nc(N)nc2c1ncn2[C@@H]1O[C@H](COP(=O)(N[C@@H](C)C(=O)OCCC(C)(C)C)Oc2cccc3ccccc23)[C@@H](F)[C@@]1(C)O (stereo partly drawn) [Example 15, (2S)-3,3-Dimethylbutyl 2-((((2R,3R,4S,5R)-5-(2-amino-6-methoxy-9H-purin-9-yl)-3-fluoro-4-hydroxy-4-methyltetrahydrofuran-2-yl)methoxy)(naphthalen-1-yloxy)phosphorylamino)propanoate]	0.5	–	–	21
COc1nc(N)nc2c1ncn2[C@@H]1O[C@H](COP(=O)(N[C@@H](C)C(=O)OCC(C)(C)C)Oc2cccc3ccccc23)[C@@H](F)[C@@]1(C)O (stereo partly drawn) [Example 16, (2S)-Neopentyl 2-((((2R,3R,4S,5R)-5-(2-amino-6-methoxy-9H-purin-9-yl)-3-fluoro-4-hydroxy-4-methyltetrahydrofuran-2-yl)methoxy)(naphthalen-1-yloxy)phosphorylamino)propanoate]	0.37	–	–	29
COc1nc(N)nc2c1ncn2[C@@H]1O[C@H](COP(=O)(N[C@@H](C)C(=O)OC2CCCC2)Oc2cccc3ccccc23)[C@@H](F)[C@@]1(C)O (stereo partly drawn) [Example 17, (2S)-Cyclopentyl 2-((((2R,3R,4S,5R)-5-(2-amino-6-methoxy-9H-purin-9-yl)-3-fluoro-4-hydroxy-4-methyltetrahydrofuran-2-yl)methoxy)(naphthalen-1-yloxy)phosphorylamino)propanoate]	0.45	–	–	40
COc1nc(N)nc2c1ncn2[C@@H]1O[C@H](COP(=O)(N[C@@H](C)C(=O)OC2CCCCC2)Oc2cccc3ccccc23)[C@@H](F)[C@@]1(C)O (stereo partly drawn) [Example 18, (2S)-Cyclohexyl 2-((((2R,3R,4S,5R)-5-(2-amino-6-methoxy-9H-purin-9-yl)-3-fluoro-4-hydroxy-4-methyltetrahydrofuran-2-yl)methoxy)(naphthalen-1-yloxy)phosphorylamino)propanoate]	1.3	–	–	30
COc1nc(N)nc2c1ncn2[C@@H]1O[C@H](COP(=O)(N[C@@H](C)C(=O)OC2CCOCC2)Oc2cccc3ccccc23)[C@@H](F)[C@@]1(C)O (stereo partly drawn) [Example 19, (2S)-Tetrahydro-2H-pyran-4-yl 2-((((2R,3R,4S,5R)-5-(2-amino-6-methoxy-9H-purin-9-yl)-3-fluoro-4-hydroxy-4-methyltetrahydrofuran-2-yl)methoxy)(naphthalen-1-yloxy)phosphorylamino)propanoate]	1.4	–	–	77
CCOc1nc(N)nc2c1ncn2[C@@H]1O[C@H](COP(=O)(N[C@@H](C)C(=O)OCC(C)(C)C)Oc2cccc3ccccc23)[C@@H](F)[C@@]1(C)O (stereo partly drawn) [Example 20, (2S)-Neopentyl 2-((((2R,3R,4S,5R)-5-(2-amino-6-ethoxy-9H-purin-9-yl)-3-fluoro-4-hydroxy-4-methyltetrahydrofuran-2-yl)methoxy)(naphthalen-1-yloxy)phosphorylamino)propanoate]	0.62	–	–	23
CCOc1nc(N)nc2c1ncn2[C@@H]1O[C@H](COP(=O)(N[C@@H](C)C(=O)OC2CCCC2)Oc2cccc3ccccc23)[C@@H](F)[C@@]1(C)O (stereo partly drawn) [Example 21, (2S)-Cyclopentyl 2-((((2R,3R,4S,5R)-5-(2-amino-6-ethoxy-9H-purin-9-yl)-3-fluoro-4-hydroxy-4-methyltetrahydrofuran-2-yl)methoxy)(naphthalen-1-yloxy)phosphorylamino)propanoate]	0.4	–	–	28
